Reference: ChEMBL document CHEMBL1201861, “Genomics of Drug Sensitity in Cancer screening data, Wellcome Trust Sanger Institute”

Tests used:
Experiment in all cases: cells
UACC-257 = assay type: functional, cell-based, Homo sapiens; settings: Homo sapiens, UACC-257
Description: SANGER: Inhibition of human UACC-257 cell growth in a cell viability assay.

GI-1 = assay type: functional, cell-based, Homo sapiens; settings: Homo sapiens, GI-1;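 also: growth inhibition of human GI-1 cells, measured with a cell viability readout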
Description: SANGER: Inhibition of human GI-1 cell growth in a cell viability assay.

SK-PN-DW = assay type: functional, cell-based, Homo sapiens; settings: Homo sapiens, SK-PN-DW;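 also: growth inhibition measured with a viability assay on these cells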
Description: SANGER: Inhibition of human SK-PN-DW cell growth in a cell viability assay.

SCH = assay type: functional, cell-based, Homo sapiens; settings: Homo sapiens, SCH;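 also: growth inhibition of human SCH cells, read out in a cell viability assay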
Description: SANGER: Inhibition of human SCH cell growth in a cell viability assay.

LB1047-RCC = assay type: functional, cell-based, Homo sapiens; settings: Homo sapiens, LB1047-RCC;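 also: inhibition of cell growth, determined with a cell viability assay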
Description: SANGER: Inhibition of human LB1047-RCC cell growth in a cell viability assay.

HDLM-2 = assay type: functional, cell-based, Homo sapiens; settings: Homo sapiens, HDLM-2;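 also: cell viability assay measuring suppression of HDLM-2 proliferation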
Description: SANGER: Inhibition of human HDLM-2 cell growth in a cell viability assay.

SW756 = assay type: functional, cell-based; settings: Homo sapiens;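 also: growth inhibition of human SW756 cells, read out with a cell viability assay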
Description: SANGER: Inhibition of human SW756 cell growth in a cell viability assay.

ES4 = assay type: functional, cell-based, Homo sapiens; settings: Homo sapiens, ES4;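 also: growth inhibition of human ES4 cells, read out by a cell viability assay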
Description: SANGER: Inhibition of human ES4 cell growth in a cell viability assay.

ACN = assay type: functional, cell-based, Homo sapiens; settings: Homo sapiens, ACN;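 also: growth inhibition of the human ACN cell line, read out via cell viability testing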
Description: SANGER: Inhibition of human ACN cell growth in a cell viability assay.

NCI-H226 = assay type: functional, cell-based, Homo sapiens; settings: Homo sapiens, NCI-H226;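 also: cell viability read-out used to gauge growth inhibition of the cells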
Description: SANGER: Inhibition of human NCI-H226 cell growth in a cell viability assay.

LU-134-A = assay type: functional, cell-based, Homo sapiens; settings: Homo sapiens, LU-134-A
Description: SANGER: Inhibition of human LU-134-A cell growth in a cell viability assay.

EW-16 = assay type: functional, cell-based, Homo sapiens; settings: Homo sapiens, EW-16;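 also: growth inhibition of human EW-16 cells, read out as cell viability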
Description: SANGER: Inhibition of human EW-16 cell growth in a cell viability assay.

SW 954 = assay type: functional, cell-based, Homo sapiens; settings: Homo sapiens, SW 954;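 also: growth inhibition of SW954 human cancer cells, read out as cell viability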
Description: SANGER: Inhibition of human SW954 cell growth in a cell viability assay.

LAN-6 = assay type: functional, cell-based, Homo sapiens; settings: Homo sapiens, LAN-6;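 also: growth inhibition of LAN-6 cells, determined with a cell viability assay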
Description: SANGER: Inhibition of human LAN-6 cell growth in a cell viability assay.

P30-OHK = assay type: functional, cell-based, Homo sapiens; settings: Homo sapiens, P30-OHK;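 also: growth inhibition of the P30-OHK cell line, read out with a cell viability assay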
Description: SANGER: Inhibition of human P30-OHK cell growth in a cell viability assay.

HCC2157 = assay type: functional, cell-based, Homo sapiens; settings: Homo sapiens, HCC2157;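 also: growth inhibition of the cancer cell line, read out as cell viability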
Description: SANGER: Inhibition of human HCC2157 cell growth in a cell viability assay.

LS-411N = assay type: functional, cell-based, Homo sapiens; settings: Homo sapiens, LS-411N
DOHH-2 = assay type: functional, cell-based, Homo sapiens; settings: Homo sapiens, DOHH-2;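 also: growth inhibition of human DOHH-2 cells, read out with a cell viability assay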
Description: SANGER: Inhibition of human DOHH-2 cell growth in a cell viability assay.

HL-60 = assay type: functional, cell-based, Homo sapiens; settings: Homo sapiens, HL-60;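 also: growth inhibition of human HL-60 cells, read out with a cell viability assay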
Description: SANGER: Inhibition of human HL-60 cell growth in a cell viability assay.

TE-12 = assay type: functional, cell-based, Homo sapiens; settings: Homo sapiens, TE-12;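 also: growth inhibition of TE-12 cells, read out by a cell viability assay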
Description: SANGER: Inhibition of human TE-12 cell growth in a cell viability assay.

C32 = assay type: functional, cell-based; settings: Homo sapiens;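 also: cell viability assay, with IC50 reflecting inhibition of C32 cell growth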
Description: SANGER: Inhibition of human C32 cell growth in a cell viability assay.

NKM-1 = assay type: functional, cell-based, Homo sapiens; settings: Homo sapiens, NKM-1;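 also: growth inhibition of NKM-1 cells, read out with a cell viability assay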
Description: SANGER: Inhibition of human NKM-1 cell growth in a cell viability assay.

LB771-HNC = assay type: functional, cell-based; settings: Homo sapiens;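 also: growth inhibition of LB771-HNC human cells, read out with a cell viability assay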
Description: SANGER: Inhibition of human LB771-HNC cell growth in a cell viability assay.

TE-11 = assay type: functional, cell-based; settings: Homo sapiens;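 also: growth inhibition of human TE-11 cells, read out by a cell viability assay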
Description: SANGER: Inhibition of human TE-11 cell growth in a cell viability assay.

A498 = assay type: functional, cell-based, Homo sapiens; settings: Homo sapiens, A498;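 also: growth inhibition of human A498 cells, read out with a cell viability assay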
Description: SANGER: Inhibition of human A498 cell growth in a cell viability assay.

A4-Fuk = assay type: functional, cell-based, Homo sapiens; settings: Homo sapiens, A4-Fuk;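 also: growth inhibition of A4-Fuk cells, read out by a cell viability assay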
Description: SANGER: Inhibition of human A4-Fuk cell growth in a cell viability assay.

LC-2-ad = assay type: functional, cell-based, Homo sapiens; settings: Homo sapiens, LC-2-ad;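 also: growth inhibition of human LC-2-ad cells, read out with a cell viability assay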
Description: SANGER: Inhibition of human LC-2-ad cell growth in a cell viability assay.

J-RT3-T3-5 = assay type: functional, cell-based, Homo sapiens; settings: Homo sapiens, J-RT3-T3-5;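 also: cell viability assay measuring growth inhibition of human J-RT3-T3-5 cells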
Description: SANGER: Inhibition of human J-RT3-T3-5 cell growth in a cell viability assay.

NB10 = assay type: functional, cell-based, Homo sapiens; settings: Homo sapiens, NB10;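 also: growth inhibition of NB10 cells, read out by a cell viability assay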
Description: SANGER: Inhibition of human NB10 cell growth in a cell viability assay.

LAMA-84 = assay type: functional, cell-based, Homo sapiens; settings: Homo sapiens, LAMA-84;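 also: growth inhibition of LAMA-84 cells, read out with a cell viability assay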
Description: SANGER: Inhibition of human LAMA-84 cell growth in a cell viability assay.

MC116 = assay type: functional, cell-based, Homo sapiens; settings: Homo sapiens, MC116;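 also: growth inhibition of MC116 cells, read out with a cell viability assay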
Description: SANGER: Inhibition of human MC116 cell growth in a cell viability assay.

TE-1 = assay type: functional, cell-based, Homo sapiens; settings: Homo sapiens, TE-1
Description: SANGER: Inhibition of human TE-1 cell growth in a cell viability assay.

RXF 393 = assay type: functional, cell-based, Homo sapiens; settings: Homo sapiens, RXF 393;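 also: growth inhibition of human RXF 393 cells, read out with a cell viability assay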
Description: SANGER: Inhibition of human RXF393 cell growth in a cell viability assay.

NCI-H1155 = assay type: functional, cell-based, Homo sapiens; settings: Homo sapiens, NCI-H1155;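 also: cell growth inhibition measured by a viability assay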
Description: SANGER: Inhibition of human NCI-H1155 cell growth in a cell viability assay.

EKVX = assay type: functional, cell-based, Homo sapiens; settings: Homo sapiens, EKVX;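 also: growth inhibition of human EKVX cells, read out with a cell viability assay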
Description: SANGER: Inhibition of human EKVX cell growth in a cell viability assay.

DBTRG-05MG = assay type: functional, cell-based; settings: Homo sapiens;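 also: cell viability assay measuring growth inhibition of human DBTRG-05MG cells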
Description: SANGER: Inhibition of human DBTRG-05MG cell growth in a cell viability assay.

CAS-1 = assay type: functional, cell-based, Homo sapiens; settings: Homo sapiens, CAS-1;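 also: growth inhibition of CAS-1 cells, measured with a cell viability assay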
Description: SANGER: Inhibition of human CAS-1 cell growth in a cell viability assay.

HT = assay type: functional, cell-based, Homo sapiens; settings: Homo sapiens, HT
Description: SANGER: Inhibition of human HT cell growth in a cell viability assay.

KURAMOCHI = assay type: functional, cell-based, Homo sapiens; settings: Homo sapiens, KURAMOCHI;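 also: growth inhibition of KURAMOCHI cells, read out with a cell viability assay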
Description: SANGER: Inhibition of human KURAMOCHI cell growth in a cell viability assay.

C-33-A = assay type: functional, cell-based; settings: Homo sapiens;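 also: cell viability assay measuring growth inhibition of C-33-A cells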
Description: SANGER: Inhibition of human C-33-A cell growth in a cell viability assay.

DU-4475 = assay type: functional, cell-based, Homo sapiens; settings: Homo sapiens, DU-4475
Description: SANGER: Inhibition of human DU-4475 cell growth in a cell viability assay.

ES3 = assay type: functional, cell-based, Homo sapiens; settings: Homo sapiens, ES3;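 also: growth inhibition of ES3 cells, read out with a cell viability assay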
Description: SANGER: Inhibition of human ES3 cell growth in a cell viability assay.

A253 cell line = assay type: functional, cell-based, Homo sapiens; settings: Homo sapiens, A253;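 also: growth inhibition of A253 cells, read out with a cell viability assay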
Description: SANGER: Inhibition of human A253 cell growth in a cell viability assay.

TGBC24TKB = assay type: functional, cell-based; settings: Homo sapiens;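 also: growth inhibition of human TGBC24TKB cells, read out with a cell viability assay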
Description: SANGER: Inhibition of human TGBC24TKB cell growth in a cell viability assay.

KARPAS-45 = assay type: functional, cell-based, Homo sapiens; settings: Homo sapiens, KARPAS-45;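 also: inhibition of cell line growth, read out through a viability assay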
Description: SANGER: Inhibition of human KARPAS-45 cell growth in a cell viability assay.

CTV-1 = assay type: functional, cell-based, Homo sapiens; settings: Homo sapiens, CTV-1;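 also: growth inhibition of the cell line, read out with a cell viability assay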
Description: SANGER: Inhibition of human CTV-1 cell growth in a cell viability assay.

KU812 cell line = assay type: functional, cell-based, Homo sapiens; settings: Homo sapiens, KU812;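 also: growth inhibition of KU812 cells, read out with a cell viability assay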
Description: SANGER: Inhibition of human KU812 cell growth in a cell viability assay.

KY821 = assay type: functional, cell-based, Homo sapiens; settings: Homo sapiens, KY821;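 also: growth inhibition of human KY821 cells, read out by a cell viability assay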
Description: SANGER: Inhibition of human KY821 cell growth in a cell viability assay.

LNCaP-Clone-FGC = assay type: functional, cell-based, Homo sapiens; settings: Homo sapiens, LNCaP-Clone-FGC
Description: SANGER: Inhibition of human LNCaP-Clone-FGC cell growth in a cell viability assay.

JVM-2 = assay type: functional, cell-based, Homo sapiens; settings: Homo sapiens, JVM-2;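 also: growth inhibition of JVM-2 cells determined by a cell viability assay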
Description: SANGER: Inhibition of human JVM-2 cell growth in a cell viability assay.

SK-UT-1 = assay type: functional, cell-based, Homo sapiens; settings: Homo sapiens, SK-UT-1;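 also: growth inhibition of SK-UT-1 cells, measured by a cell viability assay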
Description: SANGER: Inhibition of human SK-UT-1 cell growth in a cell viability assay.

CS(=O)(=O)N1CCN(Cc2cc3nc(-c4cccc5[nH]ncc45)nc(N4CCOCC4)c3s2)CC1 [PICTILISIB]
IC50 (UACC-257): > 4000 nM | IC50 (GI-1): > 4000 nM | IC50 (SK-PN-DW): > 4000 nM | IC50 (SCH): > 4000 nM | IC50 (LB1047-RCC): 523 nM | IC50 (HDLM-2): 949 nM | IC50 (SW756): > 4000 nM | IC50 (ES4): 640 nM | IC50 (ACN): > 4000 nM | IC50 (NCI-H226): > 4000 nM | IC50 (LU-134-A): > 4000 nM | IC50 (EW-16): 1850 nM | IC50 (SW 954): > 4000 nM | IC50 (LAN-6): > 4000 nM | IC50 (P30-OHK): 731 nM | IC50 (HCC2157): 2330 nM | IC50 (LS-411N): > 4000 nM | IC50 (DOHH-2): > 4000 nM | IC50 (HL-60): 426 nM | IC50 (TE-12): > 4000 nM | IC50 (C32): 3420 nM | IC50 (NKM-1): 593 nM | IC50 (LB771-HNC): > 4000 nM | IC50 (TE-11): > 4000 nM | IC50 (A498): 1300 nM | IC50 (A4-Fuk): 1300 nM | IC50 (LC-2-ad): > 4000 nM | IC50 (J-RT3-T3-5): > 4000 nM | IC50 (NB10): > 4000 nM | IC50 (LAMA-84): 2030 nM | IC50 (MC116): > 4000 nM | IC50 (TE-1): > 4000 nM | IC50 (RXF 393): > 4000 nM | IC50 (NCI-H1155): > 4000 nM | IC50 (EKVX): 1010 nM | IC50 (DBTRG-05MG): > 4000 nM | IC50 (CAS-1): > 4000 nM | IC50 (HT): 1130 nM | IC50 (KURAMOCHI): > 4000 nM | IC50 (C-33-A): > 4000 nM | IC50 (DU-4475): > 4000 nM | IC50 (ES3): > 4000 nM | IC50 (A253 cell line): > 4000 nM | IC50 (TGBC24TKB): 1080 nM

CN(C)CCOc1ccc(-c2nc(-c3ccncc3)c(-c3ccc4c(c3)CC/C4=N\O)[nH]2)cc1 [SB590885]
IC50 (KARPAS-45): 3920 nM | IC50 (UACC-257): 1130 nM | IC50 (GI-1): > 5000 nM | IC50 (SK-PN-DW): > 5000 nM | IC50 (SCH): > 5000 nM | IC50 (LB1047-RCC): > 5000 nM | IC50 (HDLM-2): > 5000 nM | IC50 (SW756): > 5000 nM | IC50 (ES4): > 5000 nM | IC50 (CTV-1): > 5000 nM | IC50 (ACN): 1150 nM | IC50 (NCI-H226): > 5000 nM | IC50 (LU-134-A): > 5000 nM | IC50 (EW-16): > 5000 nM | IC50 (SW 954): > 5000 nM | IC50 (KU812 cell line): > 5000 nM | IC50 (LAN-6): > 5000 nM | IC50 (P30-OHK): > 5000 nM | IC50 (HCC2157): > 5000 nM | IC50 (LS-411N): > 5000 nM | IC50 (DOHH-2): > 5000 nM | IC50 (HL-60): > 5000 nM | IC50 (TE-12): > 5000 nM | IC50 (C32): 99.6 nM | IC50 (NKM-1): 1670 nM | IC50 (LB771-HNC): > 5000 nM | IC50 (TE-11): > 5000 nM | IC50 (A498): > 5000 nM | IC50 (KY821): > 5000 nM | IC50 (A4-Fuk): > 5000 nM | IC50 (LC-2-ad): > 5000 nM | IC50 (J-RT3-T3-5): > 5000 nM | IC50 (NB10): > 5000 nM | IC50 (LAMA-84): > 5000 nM | IC50 (MC116): > 5000 nM | IC50 (TE-1): > 5000 nM | IC50 (LNCaP-Clone-FGC): > 5000 nM | IC50 (RXF 393): > 5000 nM | IC50 (NCI-H1155): > 5000 nM | IC50 (JVM-2): > 5000 nM | IC50 (EKVX): > 5000 nM | IC50 (DBTRG-05MG): 3530 nM | IC50 (CAS-1): > 5000 nM | IC50 (HT): > 5000 nM | IC50 (KURAMOCHI): > 5000 nM | IC50 (C-33-A): > 5000 nM | IC50 (DU-4475): 23.5 nM | IC50 (ES3): > 5000 nM | IC50 (A253 cell line): > 5000 nM | IC50 (TGBC24TKB): > 5000 nM

NC(=O)c1ccc(N(C(N)=O)c2c(F)cccc2F)nc1-c1ccc(F)cc1F [VX-702]
IC50 (KARPAS-45): 148 nM | IC50 (UACC-257): 1200 nM | IC50 (GI-1): > 2000 nM | IC50 (SK-PN-DW): > 2000 nM | IC50 (SCH): > 2000 nM | IC50 (LB1047-RCC): > 2000 nM | IC50 (HDLM-2): > 2000 nM | IC50 (SW756): > 2000 nM | IC50 (ES4): > 2000 nM | IC50 (CTV-1): 184 nM | IC50 (ACN): > 2000 nM | IC50 (NCI-H226): > 2000 nM | IC50 (LU-134-A): > 2000 nM | IC50 (EW-16): > 2000 nM | IC50 (SW 954): > 2000 nM | IC50 (KU812 cell line): 125 nM | IC50 (LAN-6): > 2000 nM | IC50 (P30-OHK): > 2000 nM | IC50 (LS-411N): > 2000 nM | IC50 (DOHH-2): > 2000 nM | IC50 (HL-60): > 2000 nM | IC50 (TE-12): > 2000 nM | IC50 (C32): > 2000 nM | IC50 (NKM-1): > 2000 nM | IC50 (LB771-HNC): > 2000 nM | IC50 (TE-11): > 2000 nM | IC50 (A498): > 2000 nM | IC50 (KY821): 396 nM | IC50 (A4-Fuk): > 2000 nM | IC50 (LC-2-ad): > 2000 nM | IC50 (J-RT3-T3-5): > 2000 nM | IC50 (NB10): > 2000 nM | IC50 (LAMA-84): > 2000 nM | IC50 (MC116): > 2000 nM | IC50 (TE-1): > 2000 nM | IC50 (LNCaP-Clone-FGC): > 2000 nM | IC50 (RXF 393): > 2000 nM | IC50 (NCI-H1155): > 2000 nM | IC50 (JVM-2): 83 nM | IC50 (EKVX): > 2000 nM | IC50 (SK-UT-1): > 2000 nM | IC50 (DBTRG-05MG): > 2000 nM | IC50 (CAS-1): > 2000 nM | IC50 (HT): > 2000 nM | IC50 (KURAMOCHI): > 2000 nM | IC50 (C-33-A): > 2000 nM | IC50 (DU-4475): > 2000 nM | IC50 (ES3): > 2000 nM | IC50 (TGBC24TKB): > 2000 nM
